What was measured:
[1] = Seven-day oral toxicology study (body weight, serum chemistry); type: in vivo, Sprague Dawley rats
Experimental: . […] Chronic treatment at the highest dose in tumor-bearing animals appeared to be well tolerated, with ‹10% reduction in body mass even at the highest dose of 600mg/kg after 4.5 weeks of daily treatment (Supplementary Figure S9d).
Figure 7 SSI-4 has a favorable toxicity profile (a-b) Weight changes in male or female Sprague Dawley rats treated daily with indicated doses of SSI-4 for seven days (n=3 per group). (c-d) Serum profile of indicated enzymes measured on day 8 in male or female Sprague Dawley rats treated daily with indicated doses of SSI-4 for seven days (n=3 per group). (BUN= blood urea nitrogen; AST= aspartate aminotransferase; ALT= alanine aminotransferase; ALK/Phos= alkaline phosphatase).
Sprague dawley rats (6-8 weeks old M/F) were orally gavaged with SS1-4 at the indicated dose daily, for a duration of seven days. For each dose levels 3 male and 3 females were placed on study. Rats were clinically observed and weighed daily. On day 8 rats were euthanatized and blood was collected by cardiac puncture. Blood chemistry was measured by STAT Veterinary laboratory (San Diego CA).

A498 ccRCC tumors = assay: Subcutaneous A498 xenograft tumor growth; type: in vivo, athymic nude mice; conditions: oral administration in chow, 60, 180 or 600 mg/kg, 4.5 weeks
Experimental: SCD1 expression correlates with poor cancer patient outcomes as evidenced by decreased survival in multiple cancers including gastric, lung, ovarian and renal cell carcinoma (Figure 5a-5b, Supplementary Figure 9a-9b). […] Our findings in thyroid carcinoma similarly present discordancy between tumor response to SCD1 inhibitors and SCD1 expression. SSI-4 was tested in vivo for anti-tumorigenic activity.
Figure 5 SSI-4 attenuates tumor progression Kaplan Meier survival analysis of indicated subtypes of (a) gastric and (b) lung cancer patients sorted into high versus low SCD1 mRNA expression, for multiple disease subtypes. Patient risk assessment at indicated mean follow-up is shown. […] (h) Tumor burden of ACHN pulmonary metastasis in response to SSI-4 treatment (180mg/kg) measured by ex vivo bioluminescent flux, given in photons/second (n=5 per group). ([…]) Tumor burden of ACHN pulmonary metastasis as determined by H&E staining of lungs from (h).
A498 cells were injected subcutaneously in the flank of athymic nude mice at 1x10^6/mouse. […] Tumor burden was measured using calipers. […] Once therapy was completed, lung tissue was harvested and analyzed for tumor burden via ex vivo bioluminescent imaging, and hematoxylin and eosin (H&E) staining of formalin-fixed, paraffin-embedded lung tissue. […]

4 ccRCC cell lines = assay: High-throughput proliferative screen, single point; conditions: in at least 2/4 ccRCC cell lines
Experimental: Using linear regression modeling generated from dose-response curves, proliferative inhibitory concentrations (IC50) of these 5 compounds were established (Figure 3b, Supplementary Figure 2b-2f).
Cells were seeded at 5,000 cells/well in clear-bottom 96-well plates in triplicate. Drug treatment was applied at 1:1000 in reduced serum conditions (3%). […] Alternatively, cells were plated 2x10^5/well in 12-well plates (Genesee Scientific) in triplicate prior to drug treatment. After 120-hour treatment, cell number was established using a Coulter Particle Counter (Beckman). Oleic acid-albumin (Sigma Aldrich) was added to media at 5µM, and was applied adjuvant to drug treatment. Drug stocks were prepared in DMSO (Sigma) at 1000x. IC50 dosing per cell line was calculated using CalcuSyn analytical software.
(a) High-throughput proliferative screen
of known and novel SCD1 inhibitors in ccRCC cell lines. Dashed line represents a 40% decrease in proliferation as compared to DMSO
included as a known SCD1 inhibitor. Compounds labeled with an asterisk (*) are single-blinded known SCD1 inhibitors. (b-f) Dose-
the proliferative dose-response line graph.

With CNC(=O)c1ccnc(NC(=O)N2CCC(Oc3ccccc3Cl)CC2)c1 [SSI-4] the liver enzymes ([1]; all doses tested, males and females, day 8) was “No abnormalities”, the “changes in body weight” value ([1]; females, all doses tested, daily oral for one week) was “no significant changes” and the “changes in body weight” value ([1]; males, daily oral dose of 300mg/kg for one week) was under 10%. For the same molecule, the “growth of A498 ccRCC tumors” value (A498 ccRCC tumors) was “growth inhibition” and the decrease in proliferation (4 ccRCC cell lines) was over 40%.

Source: article PMC5787466, “Accelerated bottom-up drug design platform enables the discovery of novel stearoyl-CoA desaturase 1 inhibitors for cancer therapy” (Oncotarget, 2017)
